Results reported in PubChem BioAssay (NCI).
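Growth conditions: 96-well plates. Treatment: test compound, 48 hours, 5 concentrations. Analysis: linear interpolation between bracketing concentrations; unreached endpoints set to highest concentration. The concentration for full growth arrest is given as TGI.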

Key:
Assay in all cases: growth of human tumour cells (NCI), 48 h
786-0 renal = test system: 786-0 renal
A498 renal = test system: A498 renal
A549 NSCLC = test system: A549 NSCLC
ACHN renal = test system: ACHN renal
CAKI-1 renal = test system: CAKI-1 renal
CCRF-CEM leukemia = test system: CCRF-CEM leukemia
COLO 205 colon = test system: COLO 205 colon
DU-145 prostate = test system: DU-145 prostate
EKVX NSCLC = test system: EKVX NSCLC
HCC-2998 colon = test system: HCC-2998 colon
HCT-116 colon = test system: HCT-116 colon
HCT-15 colon = test system: HCT-15 colon
HL-60(TB) leukemia = test system: HL-60(TB) leukemia
HOP-62 NSCLC = test system: HOP-62 NSCLC
HOP-92 NSCLC = test system: HOP-92 NSCLC
HS 578T breast = test system: HS 578T breast
HT29 colon = test system: HT29 colon
IGROV1 ovarian = test system: IGROV1 ovarian
K-562 leukemia = test system: K-562 leukemia
KM12 colon = test system: KM12 colon
LOX IMVI melanoma = test system: LOX IMVI melanoma
M14 melanoma = test system: M14 melanoma
MALME-3M melanoma = test system: MALME-3M melanoma
MCF7 breast = test system: MCF7 breast
MDA-MB-231 breast = test system: MDA-MB-231 breast
MDA-MB-435 = test system: MDA-MB-435
MDA-N = test system: MDA-N
MOLT-4 leukemia = test system: MOLT-4 leukemia
NCI-H226 lung = test system: NCI-H226 lung
NCI-H23 lung = test system: NCI-H23 lung
NCI-H460 lung = test system: NCI-H460 lung
NCI-H522 lung = test system: NCI-H522 lung
NCI/ADR-RES ovarian = test system: NCI/ADR-RES ovarian
OVCAR-3 ovarian = test system: OVCAR-3 ovarian
OVCAR-4 ovarian = test system: OVCAR-4 ovarian
OVCAR-5 ovarian = test system: OVCAR-5 ovarian
OVCAR-8 ovarian = test system: OVCAR-8 ovarian
PC-3 prostate = test system: PC-3 prostate
RPMI-8226 leukemia = test system: RPMI-8226 leukemia
RXF 393 renal = test system: RXF 393 renal
SF-268 CNS = test system: SF-268 CNS
SF-295 CNS = test system: SF-295 CNS
SF-539 CNS = test system: SF-539 CNS
SK-MEL-2 melanoma = test system: SK-MEL-2 melanoma
SK-MEL-28 melanoma = test system: SK-MEL-28 melanoma
SK-MEL-5 melanoma = test system: SK-MEL-5 melanoma
SN12C renal = test system: SN12C renal
SNB-19 CNS = test system: SNB-19 CNS
SR leukemia = test system: SR leukemia
SW-620 colon = test system: SW-620 colon
T-47D breast = test system: T-47D breast
TK-10 renal = test system: TK-10 renal
U251 CNS = test system: U251 CNS
UACC-257 melanoma = test system: UACC-257 melanoma
UACC-62 melanoma = test system: UACC-62 melanoma
UO-31 renal = test system: UO-31 renal
SNB-75 CNS = test system: SNB-75 CNS

With CC1CC(C)CC(NC2=NCCO2)C1 (stereo not drawn) the TGI (786-0 renal) was over 100 µM, the TGI (A498 renal) was over 100 µM and the TGI (A549 NSCLC) was over 100 µM. For the same compound, the TGI (ACHN renal) was over 100 µM, the TGI (CAKI-1 renal) was over 100 µM and the TGI (CCRF-CEM leukemia) was over 100 µM. For the same compound, the TGI (COLO 205 colon) was over 100 µM, the TGI (DU-145 prostate) was over 100 µM and the TGI (EKVX NSCLC) was over 100 µM. For the same compound, the TGI (HCC-2998 colon) was over 100 µM, the TGI (HCT-116 colon) was over 100 µM and the TGI (HCT-15 colon) was over 100 µM. For the same compound, the TGI (HL-60(TB) leukemia) was over 100 µM, the TGI (HOP-62 NSCLC) was over 100 µM and the TGI (HOP-92 NSCLC) was over 100 µM. The TGI (HS 578T breast) was over 100 µM, the TGI (HT29 colon) was over 100 µM and the TGI (IGROV1 ovarian) was over 100 µM. It also gave a TGI (K-562 leukemia) of over 100 µM, a TGI (KM12 colon) of over 100 µM and a TGI (LOX IMVI melanoma) of over 100 µM. It also gave a TGI (M14 melanoma) of over 100 µM, a TGI (MALME-3M melanoma) of over 100 µM and a TGI (MCF7 breast) of over 100 µM. The TGI (MDA-MB-231 breast) was over 100 µM, the TGI (MDA-MB-435) was over 100 µM and the TGI (MDA-N) was over 100 µM. It also gave a TGI (MOLT-4 leukemia) of over 100 µM, a TGI (NCI-H226 lung) of over 100 µM and a TGI (NCI-H23 lung) of over 100 µM. The TGI (NCI-H460 lung) was over 100 µM, the TGI (NCI-H522 lung) was over 100 µM and the TGI (NCI/ADR-RES ovarian) was over 100 µM. It also gave a TGI (OVCAR-3 ovarian) of over 100 µM, a TGI (OVCAR-4 ovarian) of over 100 µM and a TGI (OVCAR-5 ovarian) of over 100 µM. For the same compound, the TGI (OVCAR-8 ovarian) was over 100 µM, the TGI (PC-3 prostate) was over 100 µM and the TGI (RPMI-8226 leukemia) was over 100 µM. For the same compound, the TGI (RXF 393 renal) was over 100 µM, the TGI (SF-268 CNS) was over 100 µM and the TGI (SF-295 CNS) was over 100 µM. It also gave a TGI (SF-539 CNS) of over 100 µM, a TGI (SK-MEL-2 melanoma) of over 100 µM and a TGI (SK-MEL-28 melanoma) of over 100 µM. It also gave a TGI (SK-MEL-5 melanoma) of over 100 µM, a TGI (SN12C renal) of over 100 µM and a TGI (SNB-19 CNS) of over 100 µM. It also gave a TGI (SR leukemia) of over 100 µM, a TGI (SW-620 colon) of over 100 µM and a TGI (T-47D breast) of over 100 µM. The TGI (TK-10 renal) was over 100 µM, the TGI (U251 CNS) was over 100 µM and the TGI (UACC-257 melanoma) was over 100 µM. The TGI (UACC-62 melanoma) was over 100 µM and the TGI (UO-31 renal) was over 100 µM.
For CCN(CC)CCOc1ccc(N2C(=O)c3cccc4cc([N+](=O)[O-])cc(c34)C2=O)cc1, the TGI (786-0 renal) was 18.3 µM, the TGI (A498 renal) was 25.4 µM and the TGI (A549 NSCLC) was 19.8 µM. For the same compound, the TGI (ACHN renal) was 15.9 µM, the TGI (CAKI-1 renal) was 26 µM and the TGI (CCRF-CEM leukemia) was 30.8 µM. It also gave a TGI (COLO 205 colon) of 64.2 µM, a TGI (DU-145 prostate) of 24.3 µM and a TGI (EKVX NSCLC) of 35.4 µM. The TGI (HCC-2998 colon) was 25 µM, the TGI (HCT-116 colon) was 20.5 µM and the TGI (HCT-15 colon) was 26.1 µM. It also gave a TGI (HL-60(TB) leukemia) of 28.2 µM, a TGI (HOP-62 NSCLC) of 15.4 µM and a TGI (HOP-92 NSCLC) of 44.1 µM. For the same compound, the TGI (HS 578T breast) was 42.5 µM, the TGI (HT29 colon) was 18.3 µM and the TGI (IGROV1 ovarian) was 22.3 µM. The TGI (KM12 colon) was 64.5 µM, the TGI (LOX IMVI melanoma) was 20.4 µM and the TGI (M14 melanoma) was 25.3 µM. It also gave a TGI (MALME-3M melanoma) of 26.9 µM, a TGI (MCF7 breast) of 23.5 µM and a TGI (MDA-MB-231 breast) of 37.6 µM. For the same compound, the TGI (MDA-MB-435) was 26.6 µM, the TGI (MDA-N) was 30.3 µM and the TGI (MOLT-4 leukemia) was 11.3 µM. The TGI (NCI-H226 lung) was 19 µM, the TGI (NCI-H23 lung) was 26.5 µM and the TGI (NCI-H460 lung) was 15.5 µM. For the same compound, the TGI (NCI-H522 lung) was 19.7 µM, the TGI (NCI/ADR-RES ovarian) was 60 µM and the TGI (OVCAR-4 ovarian) was 31 µM. It also gave a TGI (OVCAR-5 ovarian) of 20.9 µM, a TGI (OVCAR-8 ovarian) of 34.5 µM and a TGI (PC-3 prostate) of 35.2 µM. The TGI (SF-268 CNS) was 27.1 µM, the TGI (SF-295 CNS) was 21.1 µM and the TGI (SF-539 CNS) was 25.1 µM. The TGI (SK-MEL-2 melanoma) was 33.7 µM, the TGI (SK-MEL-28 melanoma) was 25.3 µM and the TGI (SK-MEL-5 melanoma) was 26.6 µM. The TGI (SN12C renal) was 40.9 µM, the TGI (SNB-19 CNS) was 30.3 µM and the TGI (SNB-75 CNS) was 35.1 µM. For the same compound, the TGI (SR leukemia) was 32.8 µM, the TGI (SW-620 colon) was 25.8 µM and the TGI (T-47D breast) was 39.3 µM. It also gave a TGI (TK-10 renal) of 26 µM, a TGI (U251 CNS) of 22.6 µM and a TGI (UACC-257 melanoma) of 27 µM. The TGI (UO-31 renal) was 21.7 µM.
